From ChEMBL document CHEMBL1129879, “Enzymatic synthesis of peptidyl amino alcohols and peptidyl amino aldehydes-serine proteinase inhibitors” (Bioorg Med Chem Lett, 1997)
Where a SMILES comes first, the peptide text is derived from it. The star is where a group is joined. Cbz = O=C(OCc1ccccc1)*

Key:
[1] = The compound was tested for the inhibition of subtilisin 72, activity expressed as Ki; parameters: species or system Bacillus subtilis
[2] = The compound was tested for the inhibition of subtilisin 72, activity expressed as IC50; parameters: species or system Bacillus subtilis

Row | Compound | Ki [1] | IC50 [2]
1 | C[C@H](NC(=O)OCc1ccccc1)C(=O)N[C@@H](C)C(=O)N[C@H](C=O)Cc1ccccc1 (Cbz-Ala-Ala-Phe-aldehyde) | 0.18 µM | 0.9 µM
2 | C[C@H](NC(=O)OCc1ccccc1)C(=O)N[C@@H](C)C(=O)N[C@H](CO)Cc1ccccc1 (HELM PEPTIDE1{[O=C(OCc1ccccc1)[*:2]].A.A.[OC[C@H](Cc1ccccc1)N[*:1]]}$$$$V2.0) | 1000 µM | –
